What was measured:
Test in all cases: KINOMEscan competition binding
Conditions in all cases: compound 10.0 µM; call rule not given here
ACVR1 (human) = ACVR1 (human) (UniProt Q04771)
ACVR2A (human) = ACVR2A (human) (UniProt P27037)
ACVR2B (human) = ACVR2B (human) (UniProt Q13705)
ACVRL1 (human) = ACVRL1 (human) (UniProt P37023)
ALK (human) = ALK (human) (UniProt Q9UM73)
AURKA (human) = AURKA (human) (UniProt O14965)
AXL (human) = AXL (human) (UniProt P30530)
BRAF (human) = BRAF (human) (UniProt P15056)
BRSK2 (human) = BRSK2 (human) (UniProt Q8IWQ3)
CAMK1D (human) = CAMK1D (human) (UniProt Q8IU85)
CAMK2A (human) = CAMK2A (human) (UniProt Q9UQM7)
CDK16 (human) = CDK16 (human) (UniProt Q00536)
CDK5 (human) = CDK5 (human) (UniProt Q00535)
Sequence of CDK5 (human) (Q00535 whole entry, looked up): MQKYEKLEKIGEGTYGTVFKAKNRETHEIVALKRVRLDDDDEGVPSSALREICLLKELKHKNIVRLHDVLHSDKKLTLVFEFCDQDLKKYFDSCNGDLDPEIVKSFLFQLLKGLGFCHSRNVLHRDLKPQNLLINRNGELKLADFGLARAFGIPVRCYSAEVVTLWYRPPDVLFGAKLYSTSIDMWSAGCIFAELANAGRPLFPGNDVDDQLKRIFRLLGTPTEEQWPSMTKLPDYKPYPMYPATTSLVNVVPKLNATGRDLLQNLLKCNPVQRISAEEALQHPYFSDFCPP

CSNK1G1 (human) = CSNK1G1 (human) (UniProt Q9HCP0)
CSNK1G2 (human) = CSNK1G2 (human) (UniProt P78368)
CSNK2A1 (human) = CSNK2A1 (human) (UniProt P68400)
DAPK2 (human) = DAPK2 (human) (UniProt Q9UIK4)
EPHA1 (human) = EPHA1 (human) (UniProt P21709)
EPHA3 (human) = EPHA3 (human) (UniProt P29320)
EPHB1 (human) = EPHB1 (human) (UniProt P54762)
FGR (human) = FGR (human) (UniProt P09769)
Sequence of FGR (human) (P09769 whole entry, looked up): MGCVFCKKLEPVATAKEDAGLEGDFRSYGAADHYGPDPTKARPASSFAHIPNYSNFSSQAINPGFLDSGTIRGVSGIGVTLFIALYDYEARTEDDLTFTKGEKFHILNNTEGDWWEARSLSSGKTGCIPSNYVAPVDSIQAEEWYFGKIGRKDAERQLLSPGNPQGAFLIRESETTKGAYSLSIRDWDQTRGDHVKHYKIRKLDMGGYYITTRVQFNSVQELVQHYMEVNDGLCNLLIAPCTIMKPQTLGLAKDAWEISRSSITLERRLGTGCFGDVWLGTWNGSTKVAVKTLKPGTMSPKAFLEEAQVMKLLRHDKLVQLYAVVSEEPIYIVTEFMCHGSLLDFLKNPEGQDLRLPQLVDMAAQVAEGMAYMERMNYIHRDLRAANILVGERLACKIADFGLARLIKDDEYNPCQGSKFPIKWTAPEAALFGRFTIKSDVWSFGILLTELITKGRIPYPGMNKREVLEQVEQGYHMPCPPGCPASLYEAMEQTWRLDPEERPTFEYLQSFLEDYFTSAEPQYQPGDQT

LYN (human) = LYN (human) (UniProt P07948)
MAP4K3 (human) = MAP4K3 (human) (UniProt Q8IVH8)
MAP4K4 (human) = MAP4K4 (human) (UniProt O95819)
MAPK8 (human) = MAPK8 (human) (UniProt P45983)
Sequence of MAPK8 (human) (P45983 whole entry, looked up): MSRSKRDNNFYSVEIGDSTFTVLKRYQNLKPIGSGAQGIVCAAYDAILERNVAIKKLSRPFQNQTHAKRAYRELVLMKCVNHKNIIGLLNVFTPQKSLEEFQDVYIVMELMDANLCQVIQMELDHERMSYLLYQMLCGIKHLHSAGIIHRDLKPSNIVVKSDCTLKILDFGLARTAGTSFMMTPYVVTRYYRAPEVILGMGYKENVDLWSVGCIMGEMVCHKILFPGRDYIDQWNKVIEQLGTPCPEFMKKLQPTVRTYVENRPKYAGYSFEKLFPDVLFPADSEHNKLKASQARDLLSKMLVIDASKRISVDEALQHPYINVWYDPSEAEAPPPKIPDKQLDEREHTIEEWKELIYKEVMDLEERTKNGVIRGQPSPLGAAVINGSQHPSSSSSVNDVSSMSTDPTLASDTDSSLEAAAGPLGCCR

NLK (human) = NLK (human) (UniProt Q9UBE8)
Sequence of NLK (human) (Q9UBE8 whole entry, looked up): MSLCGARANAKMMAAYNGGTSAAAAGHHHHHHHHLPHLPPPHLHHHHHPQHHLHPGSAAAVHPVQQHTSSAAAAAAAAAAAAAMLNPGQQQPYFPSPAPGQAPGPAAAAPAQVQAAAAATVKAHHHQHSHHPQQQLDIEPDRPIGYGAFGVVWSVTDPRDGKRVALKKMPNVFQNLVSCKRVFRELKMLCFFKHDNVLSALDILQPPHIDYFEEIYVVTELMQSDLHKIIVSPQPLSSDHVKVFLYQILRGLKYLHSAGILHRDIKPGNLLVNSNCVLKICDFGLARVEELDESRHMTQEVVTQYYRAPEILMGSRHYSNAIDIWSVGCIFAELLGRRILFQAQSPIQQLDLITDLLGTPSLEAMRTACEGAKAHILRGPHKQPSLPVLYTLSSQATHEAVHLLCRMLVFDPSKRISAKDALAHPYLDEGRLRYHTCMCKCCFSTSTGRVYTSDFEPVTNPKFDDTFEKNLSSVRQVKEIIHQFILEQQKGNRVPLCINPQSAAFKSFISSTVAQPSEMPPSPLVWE

NTRK2 (human) = NTRK2 (human) (UniProt Q16620)
PDGFRB (human) = PDGFRB (human) (UniProt P09619)
PLK4 (human) = PLK4 (human) (UniProt O00444)
SIK2 (human) = SIK2 (human) (UniProt Q9H0K1)
Sequence of SIK2 (human) (Q9H0K1 whole entry, looked up): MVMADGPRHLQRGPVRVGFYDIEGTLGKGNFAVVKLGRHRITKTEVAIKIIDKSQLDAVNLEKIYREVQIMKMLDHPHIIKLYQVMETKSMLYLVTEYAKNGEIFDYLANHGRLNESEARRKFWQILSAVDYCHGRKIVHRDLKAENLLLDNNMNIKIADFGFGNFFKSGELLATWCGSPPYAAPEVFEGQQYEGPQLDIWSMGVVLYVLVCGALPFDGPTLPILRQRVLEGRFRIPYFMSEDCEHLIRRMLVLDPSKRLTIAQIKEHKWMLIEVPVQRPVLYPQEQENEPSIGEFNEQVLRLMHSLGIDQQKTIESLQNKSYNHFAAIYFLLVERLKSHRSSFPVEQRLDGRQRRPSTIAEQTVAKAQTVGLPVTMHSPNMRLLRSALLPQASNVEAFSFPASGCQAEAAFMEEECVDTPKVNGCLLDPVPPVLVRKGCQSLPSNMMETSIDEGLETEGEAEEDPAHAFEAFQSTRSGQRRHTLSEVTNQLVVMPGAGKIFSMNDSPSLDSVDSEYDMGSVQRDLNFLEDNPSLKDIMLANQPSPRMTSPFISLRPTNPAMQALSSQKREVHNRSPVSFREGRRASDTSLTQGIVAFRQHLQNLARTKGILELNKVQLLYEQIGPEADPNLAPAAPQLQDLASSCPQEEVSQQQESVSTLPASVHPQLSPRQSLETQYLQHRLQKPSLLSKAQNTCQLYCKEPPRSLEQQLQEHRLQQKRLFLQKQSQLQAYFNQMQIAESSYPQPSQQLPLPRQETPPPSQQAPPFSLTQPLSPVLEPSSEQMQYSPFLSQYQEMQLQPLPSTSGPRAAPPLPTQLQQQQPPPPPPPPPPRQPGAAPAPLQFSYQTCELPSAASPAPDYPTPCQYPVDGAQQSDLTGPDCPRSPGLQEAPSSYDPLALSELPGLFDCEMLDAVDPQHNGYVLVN

SLK (human) = SLK (human) (UniProt Q9H2G2)
SRC (human) = SRC (human) (UniProt P12931)
STK10 (human) = STK10 (human) (UniProt O94804)
STK11 (human) = STK11 (human) (UniProt Q15831)
STK16 (human) = STK16 (human) (UniProt O75716)
Sequence of STK16 (human) (O75716 whole entry, looked up): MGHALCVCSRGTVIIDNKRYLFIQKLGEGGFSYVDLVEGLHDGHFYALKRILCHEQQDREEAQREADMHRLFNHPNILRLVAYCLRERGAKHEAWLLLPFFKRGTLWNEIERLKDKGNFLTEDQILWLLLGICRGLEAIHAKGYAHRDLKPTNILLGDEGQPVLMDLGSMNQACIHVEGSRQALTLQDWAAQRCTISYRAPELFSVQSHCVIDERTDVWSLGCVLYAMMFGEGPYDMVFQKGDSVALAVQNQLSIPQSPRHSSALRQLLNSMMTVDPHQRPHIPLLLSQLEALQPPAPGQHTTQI

STK17A (human) = STK17A (human) (UniProt Q9UEE5)
STK33 (human) = STK33 (human) (UniProt Q9BYT3)
TTK (human) = TTK (human) (UniProt P33981)
Sequence of TTK (human) (P33981 whole entry, looked up): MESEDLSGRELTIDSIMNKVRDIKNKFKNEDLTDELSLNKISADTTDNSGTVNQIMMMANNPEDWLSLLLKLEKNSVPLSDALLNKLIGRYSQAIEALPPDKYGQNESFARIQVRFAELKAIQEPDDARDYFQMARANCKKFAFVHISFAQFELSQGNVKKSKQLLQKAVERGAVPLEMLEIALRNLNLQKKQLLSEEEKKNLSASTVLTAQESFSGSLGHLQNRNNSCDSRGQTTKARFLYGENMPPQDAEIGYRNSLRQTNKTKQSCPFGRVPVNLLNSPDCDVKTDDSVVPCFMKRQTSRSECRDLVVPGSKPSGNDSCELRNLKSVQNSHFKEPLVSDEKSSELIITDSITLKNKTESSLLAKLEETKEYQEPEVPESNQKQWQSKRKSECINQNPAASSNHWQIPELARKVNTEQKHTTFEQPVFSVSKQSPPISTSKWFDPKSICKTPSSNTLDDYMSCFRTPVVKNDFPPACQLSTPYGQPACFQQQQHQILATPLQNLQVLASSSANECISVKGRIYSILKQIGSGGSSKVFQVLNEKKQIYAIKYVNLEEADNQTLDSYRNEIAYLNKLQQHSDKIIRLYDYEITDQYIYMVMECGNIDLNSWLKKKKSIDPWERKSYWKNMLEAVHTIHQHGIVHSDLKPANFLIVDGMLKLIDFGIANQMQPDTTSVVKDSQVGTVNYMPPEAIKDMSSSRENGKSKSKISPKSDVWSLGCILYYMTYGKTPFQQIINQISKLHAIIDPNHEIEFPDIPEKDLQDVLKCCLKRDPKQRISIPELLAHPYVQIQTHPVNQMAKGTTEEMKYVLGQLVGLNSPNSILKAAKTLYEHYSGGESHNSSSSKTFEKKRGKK

[1] = target: TYK2 JH1 catalytic (human) (UniProt P29597)
Sequence of TYK2 JH1 catalytic (human) (P29597 whole entry, looked up): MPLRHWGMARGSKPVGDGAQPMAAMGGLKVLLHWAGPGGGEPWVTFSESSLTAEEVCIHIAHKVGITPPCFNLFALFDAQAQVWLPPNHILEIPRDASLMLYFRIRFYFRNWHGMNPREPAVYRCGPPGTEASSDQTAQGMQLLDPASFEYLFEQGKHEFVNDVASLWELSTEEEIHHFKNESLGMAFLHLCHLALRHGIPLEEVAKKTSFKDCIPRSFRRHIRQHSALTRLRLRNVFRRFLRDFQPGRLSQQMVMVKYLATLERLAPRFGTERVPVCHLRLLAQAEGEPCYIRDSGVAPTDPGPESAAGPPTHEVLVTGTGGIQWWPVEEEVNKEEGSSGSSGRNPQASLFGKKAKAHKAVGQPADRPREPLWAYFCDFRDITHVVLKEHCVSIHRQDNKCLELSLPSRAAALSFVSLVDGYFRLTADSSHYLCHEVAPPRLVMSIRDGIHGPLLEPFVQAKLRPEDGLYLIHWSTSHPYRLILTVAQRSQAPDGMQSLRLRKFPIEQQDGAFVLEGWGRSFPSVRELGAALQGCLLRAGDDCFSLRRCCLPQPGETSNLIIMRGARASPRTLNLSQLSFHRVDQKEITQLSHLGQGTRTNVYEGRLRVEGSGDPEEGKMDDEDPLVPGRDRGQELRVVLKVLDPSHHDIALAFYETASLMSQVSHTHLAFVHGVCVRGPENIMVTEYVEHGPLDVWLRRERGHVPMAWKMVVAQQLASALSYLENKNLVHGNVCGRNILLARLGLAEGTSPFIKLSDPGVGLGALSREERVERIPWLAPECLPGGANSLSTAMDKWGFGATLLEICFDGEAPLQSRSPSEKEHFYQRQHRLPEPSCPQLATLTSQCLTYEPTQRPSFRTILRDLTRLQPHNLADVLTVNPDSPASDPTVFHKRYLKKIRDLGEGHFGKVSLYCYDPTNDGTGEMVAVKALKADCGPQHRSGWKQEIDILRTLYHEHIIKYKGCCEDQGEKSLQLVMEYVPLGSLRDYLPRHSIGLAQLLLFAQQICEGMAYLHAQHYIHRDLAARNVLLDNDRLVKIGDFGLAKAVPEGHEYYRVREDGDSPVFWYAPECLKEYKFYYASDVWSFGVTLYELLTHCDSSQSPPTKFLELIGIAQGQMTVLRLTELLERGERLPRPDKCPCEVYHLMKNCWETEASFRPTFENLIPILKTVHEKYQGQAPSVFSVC

YES1 (human) = YES1 (human) (UniProt P07947)

Measured: kinase still bound, per cent of control

CCS(=O)(=O)Nc1ccc2c(c1)[C@H](/C(=N/c1ccc(CN3CCCCC3)cc1)c1ccccc1)C(=O)N2
22.7%: ACVR2A (human)
0.7%: CAMK1D (human)
0.1%: ACVR1 (human) | FGR (human) | MAP4K3 (human)
inactive: BRAF (human) no effect | CSNK1G1 (human) no effect | CSNK1G2 (human) no effect | NLK (human) no effect
0.25%: MAP4K4 (human)
0.2%: EPHA1 (human) | LYN (human)
16.8%: CDK5 (human)
0.8%: SIK2 (human)
2.4%: ACVR2B (human)
1%: STK11 (human)
0.5%: CAMK2A (human)
3.8%: DAPK2 (human)
0%: all other assays above
